Reference: patent publication US20120095056A1, “2,5-DISUBSTITUTED TETRAZOLE DERIVATIVES AND THEIR USE AS NICOTINIC ACETYLCHOLINE RECEPTOR MODULATORS” (NEUROSEARCH A/S, priority 2009, published 2012)

Assays:
[1] = target: T1, human nicotinic acetylcholine receptor subtype a4b2 (Homo sapiens, UniProt P17787+P43681); test: FLIPR nAChR a4b2 positive allosteric modulator activity (modulation of nicotine-induced response); format: cell-based; settings: shift of nicotine pEC50 in the presence of 10 μM test compound compared to nicotine alone, HEK-293 cells stably expressing hα4β2
T1 construct: expressed in transfected cells
Experimental: Characterization of hα4β2 Positive Allosteric Modulators Using FLIPR
The modulator activity is determined as a fluorescence-based assay using a Fluorometric Imaging Plate Reader (FLIPR) as described below in more detail.
Full concentration-response curves of nicotine +/− test compound are generated and delta pEC50 values are calculated based on EC50 values for nicotine +/− test compound. EC50 values (Effective Concentration 50%) represent the concentration of the nicotine, at which the nicotine-induced response is 50% of the maximal nicotine-induced response.

T1 sequence (P43681 29-627 limits assumed): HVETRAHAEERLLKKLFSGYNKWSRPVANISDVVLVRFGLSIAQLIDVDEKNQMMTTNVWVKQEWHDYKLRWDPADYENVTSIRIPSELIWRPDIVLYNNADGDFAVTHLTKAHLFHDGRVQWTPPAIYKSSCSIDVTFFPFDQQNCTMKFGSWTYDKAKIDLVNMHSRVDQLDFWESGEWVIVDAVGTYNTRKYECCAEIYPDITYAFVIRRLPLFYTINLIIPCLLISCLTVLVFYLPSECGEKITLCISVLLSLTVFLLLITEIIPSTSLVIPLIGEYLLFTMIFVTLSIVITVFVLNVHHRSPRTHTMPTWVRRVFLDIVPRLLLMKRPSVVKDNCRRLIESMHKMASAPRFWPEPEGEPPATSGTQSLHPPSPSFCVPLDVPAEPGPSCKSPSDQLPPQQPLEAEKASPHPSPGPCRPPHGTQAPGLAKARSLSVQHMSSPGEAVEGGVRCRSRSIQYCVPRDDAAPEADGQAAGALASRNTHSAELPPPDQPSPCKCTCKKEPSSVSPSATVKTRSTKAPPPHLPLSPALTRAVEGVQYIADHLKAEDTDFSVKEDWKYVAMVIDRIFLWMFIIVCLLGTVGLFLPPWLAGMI
T1 sequence (P17787 26-502): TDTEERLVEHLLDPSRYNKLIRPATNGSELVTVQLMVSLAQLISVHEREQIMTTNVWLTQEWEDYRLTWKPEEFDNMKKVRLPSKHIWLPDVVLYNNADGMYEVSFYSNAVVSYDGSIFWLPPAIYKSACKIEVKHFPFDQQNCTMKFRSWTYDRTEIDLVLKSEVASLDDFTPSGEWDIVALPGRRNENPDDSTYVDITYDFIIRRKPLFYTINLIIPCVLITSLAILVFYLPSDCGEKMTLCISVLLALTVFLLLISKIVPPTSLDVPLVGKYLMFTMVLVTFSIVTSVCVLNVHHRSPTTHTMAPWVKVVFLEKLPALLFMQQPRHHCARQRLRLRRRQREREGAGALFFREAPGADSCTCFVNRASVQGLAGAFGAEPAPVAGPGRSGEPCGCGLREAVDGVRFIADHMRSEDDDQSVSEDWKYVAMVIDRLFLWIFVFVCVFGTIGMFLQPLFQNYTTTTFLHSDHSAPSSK

SMILES	Delta pEC50 [1]	melting point [°C]
N#Cc1cccc(-n2nnc(-c3cccnc3)n2)c1 [Compound 2.1, 3-(5-Pyridin-3-yl-tetrazol-2-yl)-benzonitrile]	1.9	
N#Cc1cccc(-n2nnc(-c3cncc(F)c3)n2)c1 [Compound 2.9, 3-[5-(5-Fluoro-3-pyridyl)tetrazol-2-yl]benzonitrile]	1.6	
Cl.N#Cc1cccc(-c2nnn(-c3ccc(F)nc3)n2)c1 [Compound 2.3, 3-[2-(6-Fluoro-3-pyridyl)tetrazol-5-yl]benzonitrile hydrochloride]	1.7	168 to 170
N#Cc1cccc(-c2nnn(-c3cccnc3)n2)c1 [Compound 2.2, 3-(2-Pyridin-3-yl-2h-tetrazol-5-yl)-benzonitrile]	1.9	185 to 205
N#Cc1ccc(-n2nnc(-c3cccnc3)n2)cc1C#N [Compound 2.14, 4-[5-(3-Pyridyl)tetrazol-2-yl]phthalonitrile]	1.1	
N#Cc1cccc(-n2nnc(-c3ccc(F)nc3)n2)c1 [Compound 2.10, 3-[5-(6-Fluoro-3-pyridyl)tetrazol-2-yl]benzonitrile]	1.3	
N#Cc1cccc(-c2nnn(-c3cncc(F)c3)n2)c1 [Compound 2.6, 3-[2-(5-Fluoro-3-pyridyl)tetrazol-5-yl]benzonitrile]	1.8	
N#Cc1cccc(-c2nnn(-c3cncc(Br)c3)n2)c1 [Compound 2.5, 3-[2-(5-Bromo-3-pyridyl)tetrazol-5-yl]benzonitrile]		175 to 191
